From ChEMBL document CHEMBL5050844 (2019)

Tests used:
[1] = target: E3 ubiquitin-protein ligase CBL-B (Homo sapiens, UniProt Q13191); test: Inhibition of N-terminal Avi-tagged human CBL-B (36 to 427 residues) incubated with 60 nM Src kinase for 1.5 hrs followed by incubation with fluorescently labeled UbcH5B-Ub for 1 hr and measured by TR-FRET assay; type: single protein
[2] = Induction of anti-CD3/CD28 antibodies-stimulated human T cell activation at 1 uM assessed fold increase in IL-2 secretion measured by ELISA assay; type: functional, T cell line
[3] = Induction of anti-CD3/CD28 antibodies-stimulated human T cell activation at 0.3 uM assessed fold increase in IL-2 secretion measured by ELISA assay; type: functional, T cell line
[4] = Induction of anti-CD3 antibodies-stimulated human T cell activation at 1 uM assessed fold increase in IL-2 secretion measured by ELISA assay; type: functional, T cell line; note: reference of the scale not given here
[5] = Induction of anti-CD3/CD28 antibodies-stimulated human T cell activation at 1 uM assessed fold increase in CD25 expression measured by ELISA assay; type: functional, T cell line
[6] = Induction of anti-CD3/CD28 antibodies-stimulated human T cell activation at 0.3 uM assessed fold increase in CD25 expression measured by ELISA assay; type: functional, T cell line
[7] = Induction of anti-CD3 antibodies-stimulated human T cell activation at 1 uM assessed fold increase in CD25 expression measured by ELISA assay; type: functional, T cell line; note: reference of the scale not given here

Chain of E3 ubiquitin-protein ligase CBL-B (Q13191 whole entry, the tested form may be a part): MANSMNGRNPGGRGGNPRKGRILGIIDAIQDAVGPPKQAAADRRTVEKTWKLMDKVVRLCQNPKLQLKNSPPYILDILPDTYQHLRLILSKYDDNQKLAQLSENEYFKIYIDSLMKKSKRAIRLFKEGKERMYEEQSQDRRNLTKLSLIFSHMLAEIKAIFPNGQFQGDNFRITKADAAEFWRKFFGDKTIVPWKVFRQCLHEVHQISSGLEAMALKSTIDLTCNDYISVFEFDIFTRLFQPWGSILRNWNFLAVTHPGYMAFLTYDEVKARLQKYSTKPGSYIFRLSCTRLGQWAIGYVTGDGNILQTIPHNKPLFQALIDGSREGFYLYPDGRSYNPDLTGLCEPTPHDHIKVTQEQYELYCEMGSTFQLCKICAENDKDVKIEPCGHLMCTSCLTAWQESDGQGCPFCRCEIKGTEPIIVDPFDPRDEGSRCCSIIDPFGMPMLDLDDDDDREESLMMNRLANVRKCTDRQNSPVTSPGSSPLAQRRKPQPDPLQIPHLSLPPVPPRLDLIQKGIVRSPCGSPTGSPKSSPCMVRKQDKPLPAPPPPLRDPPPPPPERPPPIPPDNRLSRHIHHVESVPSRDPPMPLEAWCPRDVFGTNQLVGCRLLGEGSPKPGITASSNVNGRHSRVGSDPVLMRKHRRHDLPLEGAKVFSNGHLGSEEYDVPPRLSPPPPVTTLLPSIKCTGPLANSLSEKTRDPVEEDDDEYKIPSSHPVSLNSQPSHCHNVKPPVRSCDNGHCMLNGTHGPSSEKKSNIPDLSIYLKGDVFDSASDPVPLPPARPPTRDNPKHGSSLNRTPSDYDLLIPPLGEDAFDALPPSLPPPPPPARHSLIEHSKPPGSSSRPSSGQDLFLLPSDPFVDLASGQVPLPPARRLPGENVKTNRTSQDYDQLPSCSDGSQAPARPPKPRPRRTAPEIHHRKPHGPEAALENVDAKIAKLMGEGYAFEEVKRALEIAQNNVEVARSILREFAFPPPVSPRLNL

Compound | IC50 [1] [µM] | fold change (FC) [2] | fold change (FC) [3] | fold change (FC) [4] | fold change (FC) [5] | fold change (FC) [6] | fold change (FC) [7]
Cn1cnnc1CC1(c2cccc(N3Cc4c(cc(CN5CC[C@H](c6ccccc6)C5)cc4C(F)(F)F)C3=O)c2)COC1 | < 0.1 | >=7.5 | 5 | >=0.201 | 1.01 | 1.01 | >=1.001
Cn1cnnc1CC1(c2cccc(NC(=O)c3cc(N4CC(C(F)F)C4)nc(C4CC4)n3)c2)COC1 | < 0.1 | >=7.5 | 2.51 | 0.101 | 1.01 | 1.01 | 0.801
Cn1cnnc1CC1(c2cccc(N3Cc4c(cc(CN5CC6CC6(C)C5)cc4C(F)(F)F)C3=O)c2)COC1 (centres undefined) | < 0.1 | >=7.5 | >=7.5 | >=0.201 | 1.01 | 1.01 | >=1.001
C[C@H](Cc1nncn1C)c1cc(C2CCOC2)nc(N2Cc3c(cccc3C(F)(F)F)C2=O)c1 (some centres undefined) | ≤ 1 | 1.01 | 1.01 | <=0.05 | 1.01 | 1.01 | <=0.6
C[C@@H](c1cc2c(c(C(F)(F)F)c1)CN(c1cccc(C3(Cc4nncn4C)COC3)c1)C2=O)N1CC(F)C1 | < 0.1 | >=7.5 | 5 | 0.151 | 1.51 | 1.31 | >=1.001
Cn1cnnc1C[C@]1(c2cccc(N3Cc4c(cc(CN5CCC6(CC6)C5)cc4C(F)(F)F)C3=O)c2)CCOC1 | < 0.1 | >=7.5 | >=7.5 | >=0.201 | 1.01 | 1.01 | >=1.001
Cn1cnnc1C[C@@]1(c2cccc(N3Cc4c(cc(CN5CCC6(CC6)C5)cc4C(F)(F)F)C3=O)c2)CCOC1 | < 0.1 | >=7.5 | 2.51 | 0.101 | 1.01 | 1.01 | 0.801
Cn1cnnc1CC1(c2cccc(N3Cc4c(cc(CN5CC6CC5CO6)cc4C(F)(F)F)C3=O)c2)COC1 (centres undefined) | < 0.1 | 5 | 2.51 | 0.051 | 1.01 | 1.01 | 0.801
Cn1cnnc1CC1(c2cccc(N3Cc4c(cc(C(F)(F)CO)cc4C(F)(F)F)C3=O)c2)COC1 | < 0.1 | 1.01 | 1.01 | 0.101 | 1.01 | 1.01 | 0.801
Cn1cnnc1CC1(c2cccc(N3Cc4c(cc(CN5CCCCC(F)C5)cc4C(F)(F)F)C3=O)c2)COC1 (centres undefined) | < 0.1 | >=7.5 | 5 | >=0.201 | 1.31 | 1.31 | >=1.001
CCOC1CCCN(Cc2cc3c(c(C(F)(F)F)c2)CN(c2cccc(C4(Cc5nncn5C)COC4)c2)C3=O)C1 (centres undefined) | < 0.1 | >=7.5 | >=7.5 | >=0.201 | 1.51 | 1.51 | >=1.001
Cn1cnnc1CC1(c2cccc(N3Cc4c(cc(CN5CCC6(CC6)C(F)(F)C5)cc4C(F)(F)F)C3=O)c2)COC1 | < 0.1 | >=7.5 | 2.51 | >=0.201 | 1.31 | 1.31 | >=1.001
Cn1cnnc1CC1(c2cccc(N3Cc4c(cc(CN5CCCC(F)(F)CC5)cc4C(F)(F)F)C3=O)c2)COC1 | < 0.1 | >=7.5 | >=7.5 | >=0.201 | 1.01 | 1.01 | >=1.001
CCOc1cc(N2Cc3c(cc(CN4CC[C@H](F)C4)cc3C(F)(F)F)C2=O)cc(C2(Cc3nncn3C)COC2)c1 | < 0.1 | >=7.5 | 5 | >=0.201 | 1.31 | 1.31 | >=1.001
Cc1conc1CC1(c2cccc(NC(=O)c3cc(CN4CCC5(CC5)C4)nc(C4CC4)n3)c2)COC1 | < 0.1 | >=7.5 | >=7.5 | >=0.201 | 1.31 | 1.31 | >=1.001
CC[C@H](c1cc2c(c(C(F)(F)F)c1)CN(c1cccc(C3(Cc4nncn4C)COC3)c1)C2=O)N1CC[C@H](F)C1 | < 0.1 | >=7.5 | >=7.5 | >=0.201 | 1.51 | 1.51 | >=1.001
Cc1cc(C(=O)Nc2cccc(C3(Cc4nncn4C)COC3)c2)n2ncc(C)c2n1 | < 0.1 | 2.51 | 2.51 | 0.051 | 1.01 | 1.01 | 0.801
C[C@@H](c1cc2c(c(C(F)(F)F)c1)CN(c1cccc(C3([C@H](F)c4nncn4C)COC3)c1)C2=O)N1CCC2(CC2)C1 (single isomer, unassigned) | < 0.1 | >=7.5 | >=7.5 | >=0.201 | >=1.76 | >=1.76 | >=1.001
CC(c1cc(C(=O)Nc2cccc(C3(Cc4nncn4C)COC3)c2)nc(C2CC2)n1)N1CCC2(CC2)C1 (single isomer, unassigned; 592a) | < 0.1 | >=7.5 | 5 | >=0.201 | 1.01 | 1.01 | >=1.001
Cc1cc(C(=O)Nc2cccc([C@@]3(Cc4nncn4C)CCOC3)c2)nc(C2CC2)n1 | < 0.1 | 2.51 | 2.51 | 0.101 | 1.01 | 1.01 | 0.801
Cn1cnnc1[C@@H](F)C1(c2cccc(N3Cc4c(cc(CN5CCCCC5)cc4C(F)(F)F)C3=O)c2)COC1 | < 0.1 | >=7.5 | >=7.5 | 0.101 | 1.51 | 1.31 | >=1.001
C[C@H](c1cc2c(c(C(F)(F)F)c1)CN(c1cccc(C3(Cc4nncn4C)COC3)c1)C2=O)N1CC2CC2C1 (some centres undefined) | < 0.1 | >=7.5 | >=7.5 | >=0.201 | 1.31 | 1.31 | >=1.001
